Data as given in ChEMBL document CHEMBL5620398, “Membrane-active substituted triazines as antibacterial agents against Staphylococcus aureus with potential for low drug resistance and broad activity” (Eur J Med Chem, 2023).
≈ marks a conversion by molar mass, not a printed value. Calls of active or inactive are those of the source. No cut-off for these calls is given here.

Columns and labels:
Staphylococcus aureus [1] = experiment: Bactericidal activity against Staphylococcus aureus assessed as decrease in bacterial absorbance at MIC measured after 1 hr by time-kill analysis; type: functional, organism-based
Albumin [2] = biological target: T1, Albumin (Homo sapiens, UniProt P02768); experiment: Binding affinity to human serum albumin assessed as change in free energy at 308K by Van't Hoff plot analysis; type: ADME; conditions: isolated protein
T1 sequence (P02768 whole entry): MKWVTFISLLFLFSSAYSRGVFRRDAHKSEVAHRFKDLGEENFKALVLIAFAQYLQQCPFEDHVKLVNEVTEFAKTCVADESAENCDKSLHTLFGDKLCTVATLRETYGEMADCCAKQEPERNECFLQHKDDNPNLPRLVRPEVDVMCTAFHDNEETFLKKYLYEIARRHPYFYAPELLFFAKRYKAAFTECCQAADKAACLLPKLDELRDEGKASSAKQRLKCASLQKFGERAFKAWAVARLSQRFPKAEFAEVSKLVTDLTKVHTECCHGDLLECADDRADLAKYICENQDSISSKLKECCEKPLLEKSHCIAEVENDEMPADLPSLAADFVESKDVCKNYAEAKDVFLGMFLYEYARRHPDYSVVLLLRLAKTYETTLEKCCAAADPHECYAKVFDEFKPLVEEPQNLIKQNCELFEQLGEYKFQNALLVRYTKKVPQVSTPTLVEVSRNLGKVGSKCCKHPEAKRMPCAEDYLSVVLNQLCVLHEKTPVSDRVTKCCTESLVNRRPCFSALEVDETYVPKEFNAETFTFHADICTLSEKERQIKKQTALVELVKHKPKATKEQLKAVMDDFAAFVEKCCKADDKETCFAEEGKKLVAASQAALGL

Staphylococcus aureus [3] = experiment: Bactericidal activity against Staphylococcus aureus assessed as bacterial killing; type: functional
Staphylococcus aureus [4] = experiment: Anti-biofilm activity against Staphylococcus aureus assessed as inhibition of biofilm formation at 1/16XMIC by crystal violet assay; type: functional
Cell membrane [5] = experiment: Induction of cell membrane damage in Staphylococcus aureus assessed as increase in leaked protein content at MIC to 8XMIC; type: cell membranes
Albumin [6] = biological target: T1, Albumin; experiment: Binding affinity to human serum albumin assessed as binding constant by Benesi-Hildebrand equation based analysis; type: ADME; conditions: isolated protein
Staphylococcus aureus [7] = experiment: Bactericidal activity against Staphylococcus aureus assessed as decrease in bacterial absorbance at 1/2XMIC measured after 2 hrs by time-kill analysis; type: functional, organism-based
Albumin [8] = biological target: T1, Albumin; experiment: Binding affinity to human serum albumin assessed as change in free energy at 318K by Van't Hoff plot analysis; type: ADME; conditions: isolated protein
Staphylococcus aureus [9] = experiment: Antibacterial activity against Staphylococcus aureus assessed as inhibition of bacterial growth by two-fold serial broth dilution method; type: functional
HEK293 [10] = experiment: Cytotoxicity against human HEK293 cells at 0.01 uM by MTT assay; type: toxicity, cell-based; conditions: hek293, 0.01 µM
Albumin [11] = biological target: T1, Albumin; experiment: Binding affinity to human serum albumin assessed as quenching constant at 298K by fluorescence based analysis; type: ADME; conditions: isolated protein
Calf thymus DNA [12] = experiment: Binding affinity to calf thymus DNA assessed as quenching constant by fluorescence based analysis; type: nucleic-acid assay; conditions: Bos taurus
Albumin [13] = biological target: T1, Albumin; experiment: Binding affinity to human serum albumin assessed as quenching in emission band at 350 nm at 0 to 35 uM at 298 to 318K by fluorescence based analysis; type: ADME; conditions: isolated protein, dose 0-35 µM
Staphylococcus aureus [14] = experiment: Anti-biofilm activity against Staphylococcus aureus assessed as inhibition of biofilm formation at MIC by crystal violet assay; type: functional
Enterococcus faecalis [15] = experiment: Bacteriostatic activity against Enterococcus faecalis assessed as inhibition of bacterial growth; type: functional
Calf thymus DNA [16] = experiment: Binding affinity to calf thymus DNA by Benesi-Hildebrand equation based analysis; type: nucleic-acid assay; conditions: Bos taurus
Listeria = experiment: Antibacterial activity against Listeria sps. assessed as inhibition of bacterial growth by two-fold serial broth dilution method; type: functional
Albumin [17] = biological target: T1, Albumin; experiment: Binding affinity to human serum albumin assessed as change in entropy by Van't Hoff plot analysis; type: ADME; conditions: isolated protein
Cell membrane [18] = experiment: Induction of cell membrane damage in Staphylococcus aureus assessed as loss of bacterial metabolic activity at MIC to 8XMIC by Alamar blue dye based fluorescence analysis; type: cell membranes
Albumin [19] = biological target: T1, Albumin; experiment: Binding affinity to human serum albumin assessed as binding constant at 318K by fluorescence based analysis; type: ADME; conditions: isolated protein
Staphylococcus aureus [20] = experiment: Antibacterial activity against Staphylococcus aureus assessed as inhibition of bacterial growth measured after 11 passages; type: functional, organism-based
Albumin [21] = biological target: T1, Albumin; experiment: Binding affinity to human serum albumin assessed as Stem-Volmer quenching constant at 308K by fluorescence based analysis; type: ADME; conditions: isolated protein
Escherichia coli = experiment: Antibacterial activity against Escherichia coli assessed as inhibition of bacterial growth by two-fold serial broth dilution method; type: functional
Staphylococcus aureus [22] = experiment: Anti-biofilm activity against Staphylococcus aureus assessed as inhibition of biofilm formation at 1/2XMIC by crystal violet assay; type: functional
Albumin [23] = biological target: T1, Albumin; experiment: Binding affinity to human serum albumin assessed as binding constant at 308K by fluorescence based analysis; type: ADME; conditions: isolated protein
Cell membrane [24] = experiment: Induction of cell membrane damage in Staphylococcus aureus assessed as broken cell membrane at 2XMIC by SEM analysis; type: cell membranes
Albumin [25] = biological target: T1, Albumin; experiment: Binding affinity to human serum albumin assessed as hyperchromic shift at 280 nm at 0 to 18 uM by UV-Vis absorption spectroscopic analysis; type: ADME; conditions: isolated protein, dose 0-18 µM
Cell membrane [26] = experiment: Induction of cell membrane damage in Staphylococcus aureus assessed as corrugation with leakage of cellular contents at 2XMIC by SEM analysis; type: cell membranes
Albumin [27] = biological target: T1, Albumin; experiment: Binding affinity to human serum albumin assessed as Stem-Volmer quenching constant at 298K by fluorescence based analysis; type: ADME; conditions: isolated protein
Enterococcus faecalis [28] = experiment: Antibacterial activity against Enterococcus faecalis assessed as inhibition of bacterial growth by two-fold serial broth dilution method; type: functional
HEK293 [29] = experiment: Cytotoxicity against human HEK293 cells at 100 uM by MTT assay; type: toxicity, cell-based; conditions: hek293, 100 µM
Serratia marcescens = experiment: Antibacterial activity against Serratia marcescens assessed as inhibition of bacterial growth by two-fold serial broth dilution method; type: functional
Calf thymus DNA [30] = experiment: Binding affinity to calf thymus DNA assessed as DNA intercalation by measuring increase in DNA melting temperature by thermal denaturation based analysis; type: nucleic-acid assay; conditions: Bos taurus
Calf thymus DNA [31] = experiment: Binding affinity to calf thymus DNA assessed as hypochromic shift in absorption band at 344 nm at 5 uM by UV-Vis absorption spectroscopy; type: nucleic-acid assay; conditions: Bos taurus
Calf thymus DNA [32] = experiment: Binding affinity to calf thymus DNA assessed as Stern-Volmer quenching constant by fluorescence based analysis; type: nucleic-acid assay; conditions: Bos taurus
HEK293 [33] = experiment: Cytotoxicity against human HEK293 cells at 1 uM by MTT assay; type: toxicity, cell-based; conditions: hek293, 1 µM
Cell membrane [34] = experiment: Induction of Outer membrane disruption in Staphylococcus aureus assessed as […] in fluorescence intensity at MIC to 4X MIC by NPN dye based fluorescence analysis
[35] = test system: Acinetobacter calcoaceticus; experiment: Antibacterial activity against Acinetobacter calcoaceticus assessed as inhibition of bacterial growth by two-fold serial broth dilution method; type: functional
Enterococcus faecalis [36] = experiment: Ratio of MBC to MIC for Enterococcus faecalis; type: functional
Calf thymus DNA [37] = experiment: Binding affinity to calf thymus DNA assessed as DNA intercalation by measuring quenching in emission band at 601 nm at 0 to 90 uM by ethidium bromide competitive displacement assay; type: nucleic-acid assay; conditions: Bos taurus; dose 0-90 µM
Cell membrane [38] = experiment: Induction of Inner membrane disruption in Staphylococcus aureus assessed as increase in fluorescence intensity at MIC to 4XMIC measured for 5 to 30 mins by EtBr dye based fluorescence analysis; type: cell membranes; conditions: time 5-30 min, TDE = time-dependent effect
Bacillus subtilis = experiment: Antibacterial activity against Bacillus subtilis assessed as inhibition of bacterial growth by two-fold serial broth dilution method; type: functional
Staphylococcus aureus [39] = experiment: Bactericidal activity against Staphylococcus aureus assessed as inhibition of bacterial growth at 1/4XMIC measured for 3 hrs by time-kill analysis; type: functional, organism-based
Cell membrane [40] = experiment: Induction of Inner membrane disruption in Staphylococcus aureus assessed as increase in fluorescence intensity at MIC to 4XMIC by EtBr dye based fluorescence analysis; type: cell membranes
Staphylococcus aureus [41] = experiment: Ratio of MBC to MIC for Staphylococcus aureus; type: functional
Cell membrane [42] = experiment: Induction of Outer membrane disruption in Staphylococcus aureus assessed as […] in fluorescence intensity at MIC to 4X MIC measured for 5 to 30 mins by NPN dye based fluorescence analysis; conditions: time 5-30 min, TDE = time-dependent effect
Albumin [43] = biological target: T1, Albumin; experiment: Binding affinity to human serum albumin assessed as change in free energy at 298K by Van't Hoff plot analysis; type: ADME; conditions: isolated protein
Albumin [44] = biological target: T1, Albumin; experiment: Binding affinity to human serum albumin assessed as increase in compound corresponding new band formation at 344 nm at 0 to 18 uM by UV-Vis absorption spectroscopic analysis; type: ADME; conditions: isolated protein, dose 0-18 µM
HEK293 [45] = experiment: Cytotoxicity against human HEK293 cells at 0.1 uM by MTT assay; type: toxicity, cell-based; conditions: hek293, 0.1 µM
Albumin [46] = biological target: T1, Albumin; experiment: Binding affinity to human serum albumin assessed as dynamic quenching by measuring decrease in decay time of HSA at 0 to 21 uM by time-resolved fluorescence analysis; type: ADME; conditions: isolated protein, dose 0-21 µM
Albumin [47] = biological target: T1, Albumin; experiment: Binding affinity to human serum albumin assessed as change in enthalpy by Van't Hoff plot analysis; type: ADME; conditions: isolated protein
Albumin [48] = biological target: T1, Albumin; experiment: Binding affinity to human serum albumin assessed as binding constant at 298K by fluorescence based analysis; type: ADME; conditions: isolated protein
Salmonella enterica = experiment: Antibacterial activity against Salmonella enterica assessed as inhibition of bacterial growth by two-fold serial broth dilution method; type: functional
Albumin [49] = biological target: T1, Albumin; experiment: Binding affinity to human serum albumin assessed as Stem-Volmer quenching constant at 318K by fluorescence based analysis; type: ADME; conditions: isolated protein
Calf thymus DNA [50] = experiment: Binding affinity to calf thymus DNA assessed as binding constant by fluorescence based analysis; type: nucleic-acid assay; conditions: Bos taurus
Staphylococcus aureus [51] = experiment: Anti-biofilm activity against Staphylococcus aureus assessed as inhibition of biofilm formation at 1/8XMIC by crystal violet assay; type: functional
HEK293 [52] = experiment: Cytotoxicity against human HEK293 cells at 10 uM by MTT assay; type: toxicity, cell-based; conditions: hek293, 10 µM

O=C1c2cccc3cccc(c23)C(=O)N1Nc1nc(NCc2ccccc2)nc(N2CCOCC2)n1
Activity (Staphylococcus aureus [1]): Active
deltaG (Albumin [2]): -1.62 kcal/mol
MBC (Staphylococcus aureus [3]): 3.25 µg/mL (≈ 6.75 µM)
inhibition (INH) (Staphylococcus aureus [4]): 5%
Activity (Cell membrane [5]): Active
Kb (Albumin [6]): 1.32 10^5/M
Activity (Staphylococcus aureus [7]): Active
deltaG (Albumin [8]): -1.61 kcal/mol
MIC (Staphylococcus aureus [9]): 1.56 µg/mL (≈ 3.24 µM)
Activity (HEK293 [10]): 13.4%
Kq (Albumin [11]): 1.63 10^13/M
Kq (Calf thymus DNA [12]): 1.22 10^12/M/s
Activity (Albumin [13]): Active
inhibition (INH) (Staphylococcus aureus [14]): 60%
MBC (Enterococcus faecalis [15]): 0.19 µg/mL (≈ 0.395 µM)
Kb (Calf thymus DNA [16]): 5.99 10^4/M
MIC (Listeria): 6.25 µg/mL (≈ 13 µM)
deltaS (Albumin [17]): -5.88 J/mol.K
Activity (Cell membrane [18]): Active
Kb (Albumin [19]): 4.41 10^4/M
Activity (Staphylococcus aureus [20]): Active
KSV (Albumin [21]): 1.18 10^5/M
MIC (Escherichia coli): 100 µg/mL (≈ 208 µM)
inhibition (INH) (Staphylococcus aureus [22]): 30%
Kb (Albumin [23]): 6.61 10^4/M
Activity (Cell membrane [24]): Active
Activity (Albumin [25]): Active
Activity (Cell membrane [26]): Active
KSV (Albumin [27]): 1.63 10^5/M
MIC (Enterococcus faecalis [28]): 0.003 µg/mL (≈ 0.00623 µM)
Activity (HEK293 [29]): 9.01%
MIC (Serratia marcescens): 100 µg/mL (≈ 208 µM)
ΔTm (Calf thymus DNA [30]): 12.8 °C
Activity (Calf thymus DNA [31]): Active
KSV (Calf thymus DNA [32]): 1.22 10^4/M
Activity (HEK293 [33]): 11.8%
Activity (Cell membrane [34]): Dose-Dependent Effect
MIC [35]: 200 µg/mL (≈ 415 µM)
Ratio (Enterococcus faecalis [36]): >=32
Activity (Calf thymus DNA [37]): Active
Activity (Cell membrane [38]): Tde
MIC (Bacillus subtilis): 3.12 µg/mL (≈ 6.49 µM)
Activity (Staphylococcus aureus [39]): Active
Activity (Cell membrane [40]): Dose-Dependent Effect
Ratio (Staphylococcus aureus [41]): 2
Activity (Cell membrane [42]): Tde
deltaG (Albumin [43]): -1.64 kcal/mol
Activity (Albumin [44]): Active
Activity (HEK293 [45]): 12.2%
Activity (Albumin [46]): Active
deltaH (Albumin [47]): -2.06 kcal/mol
Kb (Albumin [48]): 11.01 10^4/M
MIC (Salmonella enterica): 200 µg/mL (≈ 415 µM)
KSV (Albumin [49]): 1.13 10^5/M
Kb (Calf thymus DNA [50]): 8.26 10^4/M
inhibition (INH) (Staphylococcus aureus [51]): 10%
Activity (HEK293 [52]): 10.5%
